Data published in patent US20110212199A1, “AGENT FOR TREATING EYE DISEASES” (priority 2003, published 2011).

What was measured:
Type in all cases: in vivo, human
[1] = test system: primary open angle glaucoma; test: Example 56: primary open angle glaucoma; conditions: person; 10 mg/l in 2-hydroxypropyl-β-cyclodextrin and γ-cyclodextrin, 1 drop (50 μl) twice a day for a half year
Source text: It can be confirmed that administration of raloxifen with eye drops is effective for the treatment of primary open angle glaucoma.

[2] = test system: pigmentary retinal degeneration; test: Example 45: pigmentary retinal degeneration; conditions: person; 60 mg/l included in cyclodextrin, 1 drop (50 μl) twice a day for 3 months
open-angle glaucoma [3] = test: Example 39: open-angle glaucoma
Source text: It can be confirmed that it is effective for treatment of high tension glaucoma to lower intraocular pressure.

corneal erosion (KSD) = test: Example 36: corneal erosion; conditions: person; cyclodextrin-included eye drops of Example 32(1), 1 drop (50 μl) twice a day for 3 days
[4] = test system: dry eye and ischemic optic neuropathy; test: Example 61: dry eye and ischemic optic neuropathy
Source text: It can be confirmed that administration of trans-resveratrol is effective for the treatment of dry eye and ischemic optic neuropathy.

cataract [5] = test: Example 38: cataract; conditions: 49 days
myopia = test: Example 37: myopia; conditions: 21 days; before 0.9
open-angle glaucoma [6] = test: Example 41: open-angle glaucoma; conditions: person; 100 mg/l, 1 drop (50 μl) once a day for 14 days
Source text: It can be confirmed that administration of trans-resveratrol to eye is effective for treatment of high tension glaucoma.

glaucoma = test: Example 58: glaucoma; conditions: person; 100 mg/l, 1 drop (50 μl) twice a day for 3 months
Source text: It can be confirmed that administration of trans-resveratrol with eye drops is effective for the treatment of glaucoma.

normal tension glaucoma = test: Example 42: normal tension glaucoma; conditions: person; 100 mg/l, 1 drop (50 μl) once a day for 33 days
Source text: It can be confirmed that administration of trans-resveratrol to eyes is effective for treatment of normal tension glaucoma.

[7] = test system: Posner-Schlossmans' Syndrome (glaucoma); test: Example 40: Posner-Schlossmans' Syndrome; conditions: thereafter 100 mg/l eye drops, 1 drop (50 μl) once a day for 3 months
Procedure: Thereafter, 1 drop (50 μl) of eye drops containing trans-resveratrol (100 mg/l) included in cyclodextrin prepared in Example 32(1) was administered once a day for 3 months, then no attack occurred for 3 months or more.

[8] = test system: central retinal vein occlusion; test: Example 57: central retinal vein occlusion; conditions: person; 100 mg/l, 1 drop (50 μl) twice a day for 112 days
Source text: It can be confirmed that administration of trans-resveratrol with eye drops is effective for the treatment of central retinal vein occlusion.

iridocyclitis = test: Example 60: iridocyclitis; conditions: person, right eye; 100 mg/l, 1 drop (50 μl) twice a day for 10 days
Source text: It can be confirmed that administration of trans-resveratrol is effective for the treatment of iridocyclitis.

cataract [9] = test: Example 62: cataract; conditions: person, right eye; 100 mg/l, 1 drop (50 μl) twice a day for 67 days

Structure (SMILES)	visual fields by OCTOPUS 1-2-3 static perimeter [1]	visual field [2]	intraocular pressure ToS (open-angle glaucoma [3]; 98 days, before 22) [mmHg]	intraocular pressure ToD (open-angle glaucoma [3]; person, 100 mg/l, 1 drop (50 μl) twice a day for 98 days, before 21) [mmHG]	corneal erosion symptom (corneal erosion (KSD))	ischemic optic neuropathy ([4]; 46 days)	lacrimation and dry eye ([4]; person, 100 mg/l, 1 drop (50 μl) twice a day for 46 days)	cataract opacity, slit lamp microscope (cataract [5])	corrected visual acuity Vs (cataract [5]; before 1.2)	visual acuity Vs (myopia)	visual field, left eye (open-angle glaucoma [6])	visual fields by OCTOPUS 1-2-3 static perimeter (glaucoma)	visual fields (normal tension glaucoma)	period without attack [7] [months]	chorioretinal hemorrhage, left eye [8]	iridocyclitis outcome (iridocyclitis)	opacity of cataract (cataract [9])
O=C(c1ccc(OCCN2CCCCC2)cc1)c1c(-c2ccc(O)cc2)sc2cc(O)ccc12 [raloxifene]	the visual fields were improved	visual field was improved															
Oc1ccc(/C=C/c2cc(O)cc(O)c2)cc1 [trans-resveratrol]			13	14	the symptom was lightened	ischemic optic neuropath was improved	lacrimation was increased, dry eye was cured	cataract opacity was lightened	1.5	1.2	visual field was improved	the visual fields were improved	visual fields were improved	≥ 3	chorioretinal hemorrhage was disappeared	iridocyclitis was cured	opacity of cataract was reduced
